The text below walks through data of patent US6458847B1, “Method for screening for drugs useful in inhibition of polymerization of aβ and tau peptides” (University of Alabama at Birmingham Research Foundation, priority 1995, dated 2002).

Data set [1] addresses T1, juvenile rat MTτ (Rattus norvegicus, UniProt P19332, DEL587-617).
T1 construct: killed by decapitation at postnatal day 11 (juveniles); from tissue; host or cells: brain microtubules of P11 Sprague-Dawley rats
Description: Fatty acid dependence of tau assembly, polymer length per field by electron microscopy. Type of data set: biochemical. The following applies: for stimulation of tau assembly, qualitative examination of grids: 50 μM, below measured CMC values; for Polymer Mass (μm/field) / % maximum: 50 μM free fatty acid, 72 hours; for Polymer Mass (μm/field): juvenile rat MTτ, average ± S.E.M. (n = 12); for % maximum: relative to the maximal assembly achieved with arachidonic acid. The protocol:
All free fatty acids were purchased in the cis conformation and at maximum available purity from Sigma Chemical Company free fatty acids were diluted into tau and amyloid samples from a 200× ethanolic stock, such that the final ethanol concentration in all samples and controls was 0.5%.
Assembly was performed at 37° C. in siliconized microfuge tubes.
For staining of amyloid filaments, 4% uranyl acetate was used and the H2O rinse was omitted. […] Because short filaments were sometimes difficult to distinguish from background debri in digitized images, high concentrations of DTT were routinely used in order to maximize the production of longer filaments.

Data set [2] in a line: Critical micellar concentration by phase partitioning of phenylnaphthylamine. It is filed as physicochemical. The conditions noted are these: free fatty acids diluted into assembly buffer. As for the experimental part: All free fatty acids were purchased in the cis conformation and at maximum available purity from Sigma Chemical Company free fatty acids were diluted into tau and amyloid samples from a 200× ethanolic stock, such that the final ethanol concentration in all samples and controls was 0.5%. Values for the critical micellar concentration (CMC) were obtained based on the phase partitioning of […] phenylnaphthylamine (Kovatchev et al., 1981) when free fatty acids were diluted into assembly buffer.
For most experiments, tau proteins were diluted to 2× the desired concentration in buffer A, then 1/2 in borate saline (0.1 M H3BO3, 25 mM Na2B4O7, 75 mM NaCl) supplemented with 20 mM dithiothreitol (DTT) and 2× the required concentration of free fatty acids (final pH ˜8.4). Assembly was performed at 37° C. in siliconized microfuge tubes. For evaluating the dependence of assembly on ionic strength, tau was diluted 1/10 into 111 mM Tris pH 7.2, 11 mM DTT, supplemented to give the indicated final concentrations of NaCl. At 250 mM NaCl, the measured CMC of arachidonic acid in the Tris buffering system was >2 mM.

The target in data set [3] is T2, Aβ1-40 (Homo sapiens, UniProt P05067).
T2 construct: Aβ1-40 (Amyloid β-protein, residues 1-40, Sigma); purchased Sigma
As to the kind of experiment: Amyloid peptide assembly, thioflavin T fluorescence spectroscopy. Type of data set: biochemical. The conditions noted are these: for fatty acid concentration giving significant increases in polymer content: thioflavin T fluorescence, 24 hours. As for the experimental part: (§1) Aβ1-40 (Amyloid β-protein, residues 1-40, Sigma) was resuspended in Aβ assembly buffer (100 mM Tris pH 7.4, 150 mM NaCl) at a concentration of 0.5 mg/ml, and frozen in aliquots at −80° C. Thawed aliquots were diluted to […] in assembly buffer, and following a 2 hour pre-incubation, were centrifuged for 10 min at 14,000 rpm in an Eppendorf 5415C desktop centrifuge. The clarified solution was then supplemented with free fatty acids (final Aβ concentration ˜[…]), and incubated for 24 hours. Care was taken to perform all procedures at 4° C.
Fluorescence spectroscopy was performed essentially as described (Castano et al., 1995). Aliquots were diluted 1/6 into 67 mM glycine pH 9, […] thioflavin T, vortexed, and placed in a quartz cuvette. Samples were read on a Perkin Elmer LS-50B luminescence spectrometer, excitation=435 nm, emission=485 nm, slit widths=5 nm. The integrated intensity was averaged from the initial ten, 10 sec sampling intervals. The signal was stable for at least several hours. The fluorescence of five samples lacking Aβ was averaged and subtracted as background from all readings.

The target of data set [4] is T2, Aβ1-40. As to the kind of experiment: Amyloid peptide assembly, electron microscopy. It is filed as biochemical. The following applies: 24 hour incubation with 40 mM oleic acid or 50 mM linoleic acid. The protocol:
as §1
For staining of amyloid filaments, 4% uranyl acetate was used and the H2O rinse was omitted. […] For filament length measurements, random micrographs obtained at a nominal magnification of 15K were digitized and traced using either software from Universal Imaging Corporation or the public domain NIH Image program (for Macintosh; written by W. Rasband at the NIH and available from the Internet by anonymous ftp from zippy.nimh.nih.gov or on floppy disk from NTIS, 5285 Port Royal Rd., Springfield, Va. 22161, part number PB93-504868). […] Because short filaments were sometimes difficult to distinguish from background debri in digitized images, high concentrations of DTT were routinely used in order to maximize the production of longer filaments.

In data set [5] the test system is adult rat MTτ. As to the kind of experiment: Arachidonic acid dependence of tau assembly, adult rat MTτ. The following applies: assembly at 10 mM DTT compared with 0.01-1.0 mM DTT; adult tau, 50 μM arachidonic acid. Type of data set: biochemical. The protocol: For most experiments, tau proteins were diluted to 2× the desired concentration in buffer A, then 1/2 in borate saline (0.1 M H3BO3, 25 mM Na2B4O7, 75 mM NaCl) supplemented with 20 mM dithiothreitol (DTT) and 2× the required concentration of free fatty acids (final pH ˜8.4). Assembly was performed at 37° C. in siliconized microfuge tubes. For evaluating the dependence of assembly on ionic strength, tau was diluted 1/10 into 111 mM Tris pH 7.2, 11 mM DTT, supplemented to give the indicated final concentrations of NaCl. At 250 mM NaCl, the measured CMC of arachidonic acid in the Tris buffering system was >2 mM. […] For staining of amyloid filaments, 4% uranyl acetate was used and the H2O rinse was omitted. […] For filament length measurements, random micrographs obtained at a nominal magnification of 15K were digitized and traced using either software from Universal Imaging Corporation or the public domain NIH Image program (for Macintosh; written by W. Rasband at the NIH and available from the Internet by anonymous ftp from zippy.nimh.nih.gov or on floppy disk from NTIS, 5285 Port Royal Rd., Springfield, Va. 22161, part number PB93-504868). […] Because short filaments were sometimes difficult to distinguish from background debri in digitized images, high concentrations of DTT were routinely used in order to maximize the production of longer filaments.

T2 sequence (P05067 672-711 limits assumed): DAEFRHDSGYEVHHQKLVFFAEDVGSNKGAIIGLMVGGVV
T1 sequence (P19332 with tags, fused parts or gaps isoform P19332-6 DEL209-239): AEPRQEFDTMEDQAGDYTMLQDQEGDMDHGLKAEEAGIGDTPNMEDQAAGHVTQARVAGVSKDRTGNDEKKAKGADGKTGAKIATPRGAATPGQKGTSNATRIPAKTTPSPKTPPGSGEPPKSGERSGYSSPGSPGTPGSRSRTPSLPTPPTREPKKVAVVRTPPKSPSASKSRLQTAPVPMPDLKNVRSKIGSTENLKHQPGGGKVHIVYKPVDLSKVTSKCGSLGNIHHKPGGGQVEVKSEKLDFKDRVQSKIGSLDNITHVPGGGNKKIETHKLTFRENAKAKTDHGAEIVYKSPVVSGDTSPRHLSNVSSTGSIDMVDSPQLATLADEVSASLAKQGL

Turning to `CCCCC/C=C\C/C=C\C/C=C\C/C=C\CCCC(=O)OCC` [ethyl ester of arachidonic acid], the “stimulation of tau assembly, qualitative examination of grids” value in data set [1] is “did not appear to be stimulated”.
In the case of `CCCCCCCCCCCCCCCC(=O)O` [palmitic acid (16:0), palmitic acid], in data set [1], the “Polymer Mass (μm/field)” value stood at 7.37 ± 0.92 μm/field and the “% maximum” value is listed as 30%.
For `CCCCCC/C=C\CCCCCCCC(=O)O` [9-palmitoleic acid (16:1), 9-palmitoleic acid], in data set [1], the “Polymer Mass (μm/field)” value was found to be 23.69 ± 4.11 μm/field and the “% maximum” value stood at 97%. This compound registered a CMC in data set [2] of 0.44 mM.
`CCCCCCCC/C=C\CCCCCCCC(=O)O` [9-oleic acid (18:1), 9-oleic acid]: in data set [1], the “Polymer Mass (μm/field)” value is given as 7.36 ± 1.77 μm/field and the “% maximum” value is given as 30%. The same compound came in with a CMC in data set [2] of 0.59 mM. The “fatty acid concentration giving significant increases in polymer content” value in data set [3] was determined as 40 µM. Also, in data set [4], the “amyloid filament lengths by electron microscopy” value is listed as “dramatic increase in filament lengths”.
For the compound `CCCCCCCCCCCCCC(=O)O` [myristic acid (14:0), myristic acid], in data set [1], the “Polymer Mass (μm/field)” value was 5.50 ± 0.76 μm/field and the “% maximum” value came to 22%. This compound displayed a CMC in data set [2] above 1 mM.
Turning to `CC/C=C\C/C=C\C/C=C\CCCCCCCC(=O)O` [9,12,15-linolenic acid (18:3), 9,12,15-linolenic acid], in data set [1], the “Polymer Mass (μm/field)” value is reported as 4.01 ± 0.72 μm/field and the “% maximum” value stood at 16%.
Regarding `O[C@H](CS)[C@H](O)CS` (racemic) [DTT, dithiothreitol], the “decrease in total polymer mass” value in data set [5] was above 50%.
As to `CCCCCCCCC=CCCCCCCCCCC(=O)O` [11-eicosenoic acid (20:1), 11-eicosenoic acid], in data set [1], the “Polymer Mass (μm/field)” value was 8.23 ± 1.36 μm/field and the “% maximum” value turned out to be 34%.
On to `CCCCCC=CCC=CCC=CCCCCCCC(=O)O` [8,11,14-eicosatrienoic acid (20:3), 8,11,14-eicosatrienoic acid], for which, in data set [1], the “Polymer Mass (μm/field)” value is given as 7.99 ± 1.55 μm/field and the “% maximum” value is given as 33%.
Consider `CCCCCC=CCC=CCCCCCCCCCC(=O)O` [11,14-eicosadienoic acid (20:2), 11,14-eicosadienoic acid], for which, in data set [1], the “Polymer Mass (μm/field)” value amounted to 1.20 ± 0.32 μm/field and the “% maximum” value is on record as 5%.
In the case of `CCCCCCCCCCCCCCCCCC(=O)O` [stearic acid (18:0), stearic acid], in data set [1], the “Polymer Mass (μm/field)” value was 3.60 ± 0.54 μm/field and the “% maximum” value is reported as 15%. Moreover, the CMC in data set [2] is reported as above 1 mM.
On to `CCC=CCC=CCC=CCC=CCC=CCCCC(=O)O` [5,8,11,14,17-eicosapentaenoic acid], for which, in data set [1], the “Polymer Mass (μm/field)” value is 11.81 ± 1.51 μm/field and the “% maximum” value is listed as 48%.
With `CCCCC/C=C\C/C=C\CCCCCCCC(=O)O` [9,12-linoleic acid (18:2), 9,12-linoleic acid], in data set [1], the “Polymer Mass (μm/field)” value turned out to be 14.74 ± 3.31 μm/field and the “% maximum” value was 60%. In data set [2], this compound came in with a CMC of 0.21 mM. Further, the “relative potency as inducer of amyloid assembly” value in data set [3] (at higher concentrations of free fatty acids (above 40 μM)) is given as “more potent inducer of amyloid assembly”. The “fatty acid concentration giving significant increases in polymer content” value in data set [3] is 40 µM. Besides, the “amyloid filament lengths by electron microscopy” value in data set [4] is listed as “dramatic increase in filament lengths”.
With `CCCCC/C=C\C/C=C\C/C=C\C/C=C\CCCC(=O)OC` [methyl ester of arachidonic acid], the “stimulation of tau assembly, qualitative examination of grids” value in data set [1] is given as “did not appear to be stimulated”.
